Source: ChEMBL document CHEMBL1201862, “PubChem BioAssay data set” (2004)
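Where inhibition never reached the appropriate level, the endpoint shown equals the highest concentration tested. Otherwise, values were interpolated linearly from a five-concentration, 48-hour dose response in 96-well plates. Here, GI50 denotes the concentration required for 50% inhibition of growth.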 The source made the active and inactive calls. No stated cut-off is given here; in the data, active = GI50 up to about 1.1 µM and inactive = higher.

What was measured:
Test in all cases: NCI tumour cell line growth inhibition, 48 h
LXFL 529 = system: LXFL 529
DMS-273 = system: DMS-273
DLD-1 = system: DLD-1
M19-MEL = system: M19-MEL
SNB-78 = system: SNB-78
HOP-18 = system: HOP-18
DMS-114 = system: DMS-114
XF498 = system: XF498
RXF 631 = system: RXF 631

Measured: GI50

COc1ccc2[nH]c3c4c(cc(-c5ccccc5)c3c2c1)C(=O)N(c1ccccc1)C4=O
inactive: LXFL 529 18.1 µM | DMS-273 2.07 µM | DLD-1 > 53 µM | M19-MEL 30.5 µM | SNB-78 27.2 µM | HOP-18 24.7 µM | DMS-114 > 47.8 µM

COc1cc2c(c(OC)c1)C(=O)C(=O)C(CC1(C)OCCCO1)=C2
inactive: LXFL 529 4.51 µM | XF498 12.8 µM | DMS-273 13.6 µM | DLD-1 2.93 µM | M19-MEL 2.32 µM | RXF 631 17.4 µM | SNB-78 9.95 µM | HOP-18 10.4 µM | DMS-114 3.59 µM

CCOC(OCC)c1ccc(/C=C/c2cc(OC)c(OC)c(OC)c2)cc1
inactive: LXFL 529 16.1 µM | DMS-273 17.6 µM | DLD-1 16.1 µM | M19-MEL 19.9 µM | RXF 631 20 µM | SNB-78 27 µM | HOP-18 61.4 µM | DMS-114 20.7 µM

CCOC(=O)/C(C#N)=C(O)/C(=C\c1ccc(Br)cc1)NC(=O)c1ccccc1
inactive: LXFL 529 > 100 µM | DMS-273 > 100 µM | DLD-1 > 100 µM | M19-MEL > 100 µM | RXF 631 > 100 µM | SNB-78 > 100 µM | HOP-18 > 100 µM | DMS-114 > 100 µM

COC(=O)c1c2cccccc-2c(Cc2c3cccccc-3c(C(=O)OC)c2O)c1O
inactive: XF498 > 100 µM | DMS-273 > 100 µM | DLD-1 > 100 µM | M19-MEL > 100 µM | SNB-78 > 100 µM | HOP-18 > 100 µM | DMS-114 > 100 µM

CC1Cc2c(N)nc(NN)nc2NC1=O (centres undefined)
inactive: XF498 3.94 µM | DMS-273 > 100 µM | DLD-1 > 100 µM | M19-MEL > 100 µM | HOP-18 > 100 µM | DMS-114 > 100 µM

CC(=O)N1CC(=O)NC1=S
inactive: LXFL 529 > 100 µM | XF498 > 100 µM | DMS-273 > 100 µM | DLD-1 > 100 µM | M19-MEL > 100 µM | SNB-78 > 100 µM | DMS-114 > 100 µM

Nc1nc(Cl)cc(NCCCCCNc2cc(Cl)nc(N)n2)n1
inactive: LXFL 529 26.9 µM | DMS-273 > 100 µM | DLD-1 > 100 µM | RXF 631 > 100 µM | SNB-78 31.3 µM | HOP-18 > 100 µM

CCOc1cc2c(cc1OC)c[n+](C)c1c3cc(OC)c(OC)cc3ccc21
inactive: LXFL 529 27 µM | DMS-273 27.8 µM | DLD-1 > 78.2 µM | M19-MEL > 56.1 µM | RXF 631 22.6 µM | SNB-78 > 57 µM | HOP-18 > 48.6 µM | DMS-114 18.2 µM

O=C(O)C1=NN=C(C(=O)O)NN1
inactive: LXFL 529 > 100 µM | DMS-273 > 100 µM | DLD-1 > 100 µM | M19-MEL > 100 µM | SNB-78 > 100 µM | HOP-18 > 100 µM

CC[N+](C)(CC)CC(C)(C)C(=O)/C=C/c1ccc(/C=C/C(=O)C(C)(C)C[N+](C)(CC)CC)cc1
inactive: LXFL 529 > 100 µM | DMS-273 > 100 µM | DLD-1 > 100 µM | M19-MEL > 100 µM | RXF 631 > 100 µM | SNB-78 > 100 µM | DMS-114 > 100 µM
